From patent US20060116316A1, “Heterocyclic inhibitors of IRES-mediated translation and methods of use thereof” (priority 2004, published 2006)
Where a SMILES comes first, the peptide text is derived from it.

System: HCV IRES
Test: HCV IRES reporter FACS assay (GFP expression ratio, intein-expressed cyclic peptides)
Format: cell-based, Hepatitis C virus
Settings: 3-mers from mutant intein scaffold, junction Val-His-Asn-X1X2X3-Trp-Ile-Ser; ratio at least 1.20 = significant activity
Text: [The source words this procedure for another variant and says it was used here with some conditions changed.] Cells producing libraries of cyclic 3-mers and 4-mers (i.e., libraries of cyclic peptides that contain 3 or 4 amino acid residues) were constructed using methods identical to those of Kinsella et al (J Biol. Chem. 2002 277:37512-8), except different oligonucleotides were used for library construction. Clones from this library were screened in an assay shown in FIG. 2 to identify IRES-inhibitory compounds.
In summary, separate cyclic 3-mer and cyclic 4-mer libraries were constructed such that each peptide of the library contained a fixed Ser, Thr or Cys residue (at position 1) and the remaining residues were randomized. For library construction, degenerate oligonucleotides of sequence 5′-[…](AGC/ACC/TGC)(NNK)2 or 3 TGCATCAGCGGCGACAG-3′ were annealed to the primer 5′-[…]-3′ and extended using the Expand PCR kit (Roche Molecular Biochemicals). The double-stranded DNA insert was digested and inserted into the BclI/DrdI sites of DnaBO-e-BFP (ACUC). The plasmid libraries were electroporated into ElectroMAX DH 10B competent E. coli (Invitrogen) for amplification on LB+amp agar medium. […] Expression of the intein is detected by detecting BFP expression. Expression of the intein (and the cyclic peptide produced by the intein) is suppressible by addition of exogenous doxycycline. The amino acid sequence of the junctions of the intein scaffold used in making the 3-mer library is Val-His-Asn-X3 or 4-Cys-Ile-Ser, where X3 or 4 are three or four contiguous amino acids.
Infectious retroviral particles were produced by transfection of 15 µg of each library (as described in Swift et al, (1999). Current Protocols in Immunology Vol. 10.17C, pp. 1-17, Freeman, N.Y.) into approximately 5×10^6 Phoenix-A packaging cells. Each resulting library of retroviral particles was then used to infect 5×10^6 BJAB-S3A11 reporter cells and a FACS based selection was carried out to isolate cells with reduced HCV-IRES reporter output.
In detail, referring to FIG. 2, the cells used in the assay contained an IRES-dependent reporter system. […]. Also present in the cells is a control reporter system for assaying the activity of 5′ cap-dependent translation (the mechanism by which most cellular proteins are normally translated). The control reporter system contains a CMV promoter that drives the transcription of an RNA containing 5′ cap-dependent UTR, operably linked to an RNA encoding RFP (red fluorescent protein). Translation of RFP is dependent on the activity of the 5′ cap-dependent UTR.
Cells containing both the cyclic compound library and the reporter systems described above were first screened for survival upon exposure to diptheria toxin, and then screened by FACS to identify cells that had reduced GFP expression, as compared to RFP expression. Cells were expanded and replica-plated and grown in the presence or absence of dox (100 ng/ml) for four days. Plates were stimulated with IL-4 and GFP expression (relative to RFP) was monitored by flow cytometry. The IRES-inhibitory activity of a peptide is evaluated by calculating the ratio of the geometric mean of GFP expression of peptide positive cells (“peptide pos+” cells i.e., cells not contacted with dox) to the geometric mean of GFP expression of peptide negative cells (“peptide pos−” cells i.e., cells contacted with dox).
Cyclic peptides assigned higher scores have a greater IRES-inhibitory activity.
The number shown in parentheses after each of the amino acid sequences is the IRES-inhibitory activity ratio, as discussed above.

| SMILES | IRES-inhibitory activity ratio (geometric mean GFP expression, peptide positive cells / peptide negative cells) |
| --- | --- |
| C[C@@H]1NC(=O)[C@H](CO)NC(=O)[C@H](Cc2ccccc2)NC1=O [cyclo-SAF, cyclo[SAF]] (cyclo(Ala-Phe-Ser)) | 1.88 |
| CCC(C)[C@@H]1NC(=O)[C@H](C)NC(=O)[C@H](CO)NC1=O (stereo partly shown) [cyclo-SAI, cyclo[SAI]] | 1.30 |
| C[C@@H]1NC(=O)[C@H](CO)NC(=O)[C@H](CCCCN)NC1=O [cyclo-SAK, cyclo[SAK]] (cyclo(Ala-Lys-Ser)) | 1.3 |
| C[C@@H]1NC(=O)[C@H](CO)NC(=O)[C@H](CCC(N)=O)NC1=O [cyclo-SAQ, cyclo[SAQ]] (cyclo(Ala-Gln-Ser)) | 1.4 |
| O=C1N[C@@H](CS)C(=O)N[C@@H](Cc2c[nH]c3ccccc23)C(=O)N[C@H]1CO [cyclo-SCW, cyclo[SCW]] (cyclo(Cys-Trp-Ser)) | 2.01 |
| O=C(O)C[C@@H]1NC(=O)[C@H](CO)NC(=O)[C@H](Cc2c[nH]c3ccccc23)NC1=O [cyclo-SDW, cyclo[SDW]] (cyclo(Asp-Trp-Ser)) | 1.85 |
| O=C(O)CC[C@@H]1NC(=O)[C@H](CO)NC(=O)[C@H](Cc2c[nH]c3ccccc23)NC1=O [cyclo-SEW, cyclo[SEW]] (cyclo(Glu-Trp-Ser)) | 2.00 |
| O=C1CNC(=O)[C@H](CO)NC(=O)[C@H](Cc2c[nH]c3ccccc23)N1 [cyclo-SGW, cyclo[SGW]] (cyclo(Gly-Trp-Ser)) | 1.94 |
| O=C1N[C@@H](Cc2cnc[nH]2)C(=O)N[C@@H](Cc2c[nH]c3ccccc23)C(=O)N[C@H]1CO [cyclo-SHW, cyclo[SHW]] (cyclo(His-Trp-Ser)) | 2.26 |
| NC(=O)C[C@@H]1NC(=O)[C@H](CO)NC(=O)[C@H](Cc2c[nH]c3ccccc23)NC1=O [cyclo-SNW, cyclo[SNW]] (cyclo(Asn-Trp-Ser)) | 2.10 |

Same assay, conditions: 3-mers from mutant intein scaffold, junction Val-His-Tyr-X1X2X3-Cys-Ile-Ser; ratio at least 1.20 = significant activity

| SMILES | IRES-inhibitory activity ratio (geometric mean GFP expression, peptide positive cells / peptide negative cells) |
| --- | --- |
| CSCC[C@@H]1NC(=O)[C@H](C)NC(=O)[C@H](CO)NC1=O [cyclo-SAM, cyclo[SAM]] (cyclo(Ala-Met-Ser)) | 1.36 |
| C[C@@H]1NC(=O)[C@H](CO)NC(=O)[C@H]([C@@H](C)O)NC1=O [cyclo-SAT, cyclo[SAT]] (cyclo(Ala-Thr-Ser)) | 1.21 |
| CC(C)[C@@H]1NC(=O)[C@H](C)NC(=O)[C@H](CO)NC1=O [cyclo-SAV, cyclo[SAV]] (cyclo(Ala-Val-Ser)) | 2.65 |
| C[C@@H]1NC(=O)[C@H](CO)NC(=O)[C@H](Cc2ccc(O)cc2)NC1=O [cyclo-SAY, cyclo[SAY]] (cyclo(Ala-Tyr-Ser)) | 1.95 |
| CC(C)[C@@H]1NC(=O)[C@H](CC(=O)O)NC(=O)[C@H](CO)NC1=O [cyclo-SDV, cyclo[SDV]] (cyclo(Asp-Val-Ser)) | 1.23 |
| CC(C)[C@@H]1NC(=O)[C@H](CCC(=O)O)NC(=O)[C@H](CO)NC1=O [cyclo-SEV, cyclo[SEV]] (cyclo(Glu-Val-Ser)) | 1.93 |
| CC(C)[C@@H]1NC(=O)[C@H](Cc2cnc[nH]2)NC(=O)[C@H](CO)NC1=O [cyclo-SHV, cyclo[SHV]] (cyclo(His-Val-Ser)) | 1.91 |

Same assay, conditions: 4-mers from mutant intein scaffold, junction Val-His-Asn-X1X2X3X4-Cys-Ser; ratio at least 1.20 = significant activity

| SMILES | IRES-inhibitory activity ratio (geometric mean GFP expression, peptide positive cells / peptide negative cells) |
| --- | --- |
| N=C(N)NCCC[C@@H]1NC(=O)[C@H](Cc2c[nH]c3ccccc23)NC(=O)[C@H](Cc2ccccc2)NC(=O)[C@H](CO)NC1=O [cyclo-SFWR, cyclo[SFWR]] (cyclo(FWRS)) | 1.49 |

Same assay, conditions: BJAB-S3A11 reporter cells, +/- dox 100 ng/ml four days; library intein junction Val-His-Asn-X1X2X3-Cys-Ile-Ser; ratio at least 1.20 = significant activity

| SMILES | IRES-inhibitory activity ratio (geometric mean GFP expression, peptide positive cells / peptide negative cells) |
| --- | --- |
| C[C@@H]1NC(=O)[C@H](CS)NC(=O)[C@H](Cc2c[nH]c3ccccc23)NC1=O [cyclo-CAW, cyclo[CAW]] (cyclo(Ala-Trp-Cys)) | 1.37 |
| CSCC[C@@H]1NC(=O)[C@H](CS)NC(=O)[C@H](Cc2c[nH]c3ccccc23)NC1=O [cyclo-CMW, cyclo[CMW]] (cyclo(Cys-Met-Trp)) | 1.29 |
| O=C1N[C@@H](Cc2c[nH]c3ccccc23)C(=O)N[C@@H](Cc2c[nH]c3ccccc23)C(=O)N[C@H]1CS [cyclo-CWW, cyclo[CWW]] (cyclo(Cys-Trp-Trp)) | 1.41 |
| O=C1N[C@@H](Cc2ccc(O)cc2)C(=O)N[C@@H](Cc2c[nH]c3ccccc23)C(=O)N[C@H]1CS [cyclo-CYW, cyclo[CYW]] (cyclo(Cys-Tyr-Trp)) | 1.3 |
| C[C@@H]1NC(=O)[C@H](CO)NC(=O)[C@H](Cc2c[nH]c3ccccc23)NC1=O [cyclo-SAW, cyclo[SAW]] (cyclo(Ala-Trp-Ser)) | 1.21 |
| CC(C)[C@@H]1NC(=O)[C@H](Cc2ccccc2)NC(=O)[C@H](CO)NC1=O [cyclo-SFV, cyclo[SFV]] | 1.33 |
| O=C1N[C@@H](Cc2ccccc2)C(=O)N[C@@H](Cc2c[nH]c3ccccc23)C(=O)N[C@H]1CO [cyclo-SFW, cyclo[SFW]] (cyclo(Phe-Trp-Ser)) | 1.55 |
| CCC(C)[C@@H]1NC(=O)[C@H](CO)NC(=O)[C@H](C(C)C)NC1=O (stereo partly shown) [cyclo-SIV, cyclo[SIV]] | 1.4 |
| CCC(C)[C@@H]1NC(=O)[C@H](CO)NC(=O)[C@H](Cc2c[nH]c3ccccc23)NC1=O (stereo partly shown) [cyclo-SIW, cyclo[SIW]] | 1.36 |
| CC(C)[C@@H]1NC(=O)[C@H](CCCCN)NC(=O)[C@H](CO)NC1=O [cyclo-SKV, cyclo[SKV]] (cyclo(Lys-Val-Ser)) | 1.38 |
| CC(C)C[C@@H]1NC(=O)[C@H](CO)NC(=O)[C@H](Cc2c[nH]c3ccccc23)NC1=O [cyclo-SLW, cyclo[SLW]] (cyclo(Leu-Trp-Ser)) | 1.27 |
| CSCC[C@@H]1NC(=O)[C@H](CO)NC(=O)[C@H](C(C)C)NC1=O [cyclo-SMV, cyclo[SMV]] (cyclo(Met-Val-Ser)) | 1.36 |
| CSCC[C@@H]1NC(=O)[C@H](CO)NC(=O)[C@H](Cc2c[nH]c3ccccc23)NC1=O [cyclo-SMW, cyclo[SMW]] (cyclo(Met-Trp-Ser)) | 1.28 |
